# Reference: article PMC5218480 (PLoS ONE, 2017)
# System: MV-4-11 cells
# Assay: Gene expression microarray analysis (Affymetrix PrimeView) and GSEA
# Assay type: cell-based, human
# Design: RFU PODN (11730768_x_at) / Fold change /veh PODN (11730768_x_at) / RFU LINC00158 (11744669_a_at) / Fold change /veh LINC00158 (11744669_a_at) / RFU DUSP10 (11751237_a_at) / Fold change /veh DUSP10 (11751237_a_at) / RFU ID3 (11757404_x_at) / Fold change /veh ID3 (11757404_x_at) / RFU PLEKHG5 (11737974_s_at) / Fold change /veh PLEKHG5 (11737974_s_at) / RFU LRRC4B (11730491_at) / Fold change /veh LRRC4B (11730491_at) / RFU GIMAP4 (11747438_a_at) / Fold change /veh GIMAP4 (11747438_a_at) / RFU KRT8 (11758183_x_at) / Fold change /veh KRT8 (11758183_x_at) / RFU CNN1 (11734310_a_at) / Fold change /veh CNN1 (11734310_a_at) / RFU VPS37D (11726825_at) / Fold change /veh VPS37D (11726825_at) / RFU C10orf10 (11716522_x_at) / Fold change /veh C10orf10 (11716522_x_at) / RFU KIR2DL2 /// KIR2DL4 /// KIR2DL5A /// KIR2DL5B /// KIR2DS1 /// KIR2DS2 /// KIR2DS3 /// KIR2DS4 /// KIR3DL3 /// KIR3DL3 /// KIR3DS1 (11738374_at) / Fold change /veh KIR2DL2 /// KIR2DL4 /// KIR2DL5A /// KIR2DL5B /// KIR2DS1 /// KIR2DS2 /// KIR2DS3 /// KIR2DS4 /// KIR3DL3 /// KIR3DL3 /// KIR3DS1 (11738374_at) / RFU C1QL1 (11718748_at) / Fold change /veh C1QL1 (11718748_at) / RFU TMPRSS4 (11747572_a_at) / Fold change /veh TMPRSS4 (11747572_a_at) / RFU HAMP (11756126_x_at) / Fold change /veh HAMP (11756126_x_at) / RFU RNFT2 (11725882_a_at) / Fold change /veh RNFT2 (11725882_a_at) / RFU NR4A2 (11747474_a_at) / Fold change /veh NR4A2 (11747474_a_at) / RFU ABCC12 (11746883_a_at) / Fold change /veh ABCC12 (11746883_a_at) / RFU TMEM136 (11760407_x_at) / Fold change /veh TMEM136 (11760407_x_at) / RFU CLDN22 /// WWC2 (11732394_at) / Fold change /veh CLDN22 /// WWC2 (11732394_at) / RFU HLA-DPB1 (11760878_x_at) / Fold change /veh HLA-DPB1 (11760878_x_at) / RFU SPINT1 (11716480_a_at) / Fold change /veh SPINT1 (11716480_a_at) / RFU GAP43 (11754022_s_at) / Fold change /veh GAP43 (11754022_s_at) / RFU A4GNT (11735810_at) / Fold change /veh A4GNT (11735810_at) / RFU PRB3 (11715151_x_at) / Fold change /veh PRB3 (11715151_x_at) / RFU TUBB4B (11761932_at) / Fold change /veh TUBB4B (11761932_at) / RFU CAPN14 (11732068_a_at) / Fold change /veh CAPN14 (11732068_a_at) / RFU TMCC2 (11721928_a_at) / Fold change /veh TMCC2 (11721928_a_at) / RFU IRGQ (11745062_a_at) / Fold change /veh IRGQ (11745062_a_at) / RFU FAM174B (11720279_a_at) / Fold change /veh FAM174B (11720279_a_at) / RFU TMPRSS4 (11748680_a_at) / Fold change /veh TMPRSS4 (11748680_a_at) / RFU FAM212B (11763350_a_at) / Fold change /veh FAM212B (11763350_a_at) / RFU PLEKHG5 (11743358_a_at) / Fold change /veh PLEKHG5 (11743358_a_at) / RFU ZSCAN30 (11745921_a_at) / Fold change /veh ZSCAN30 (11745921_a_at) / RFU CMKLR1 (11741424_a_at) / Fold change /veh CMKLR1 (11741424_a_at) / RFU LOC101060620 /// MAPK8IP1 (11723275_at) / Fold change /veh LOC101060620 /// MAPK8IP1 (11723275_at) / RFU SPTSSB (11747773_x_at) / Fold change /veh SPTSSB (11747773_x_at) / RFU PRSS12 (11739890_at) / Fold change /veh PRSS12 (11739890_at) / RFU BIN1 (11741810_x_at) / Fold change /veh BIN1 (11741810_x_at) / RFU WNT11 (11732464_a_at) / Fold change /veh WNT11 (11732464_a_at) / RFU C10orf10 (11716521_a_at) / Fold change /veh C10orf10 (11716521_a_at) / RFU C5orf56 (11738089_at) / Fold change /veh C5orf56 (11738089_at) / RFU CYB561 (11721691_x_at) / Fold change /veh CYB561 (11721691_x_at) / RFU ANKRD19P (11752326_a_at) / Fold change /veh ANKRD19P (11752326_a_at) / RFU OR2T12 /// OR2T33 /// OR2T8 (11738714_s_at) / Fold change /veh OR2T12 /// OR2T33 /// OR2T8 (11738714_s_at) / RFU VCAN (11748164_a_at) / Fold change /veh VCAN (11748164_a_at) / RFU JSRP1 (11732532_at) / Fold change /veh JSRP1 (11732532_at) / RFU KRTAP10-11 (11738290_x_at) / Fold change /veh KRTAP10-11 (11738290_x_at) / RFU MYO3A (11730013_a_at) / Fold change /veh MYO3A (11730013_a_at) / RFU EBF3 (11725865_a_at) / Fold change /veh EBF3 (11725865_a_at) / RFU CAMK2N1 (11719241_x_at) / Fold change /veh CAMK2N1 (11719241_x_at) / RFU C5orf56 (11738088_a_at) / Fold change /veh C5orf56 (11738088_a_at) / RFU OLFML3 (11715873_a_at) / Fold change /veh OLFML3 (11715873_a_at) / RFU LOC100653217 /// NTM (11731650_a_at) / Fold change /veh LOC100653217 /// NTM (11731650_a_at) / RFU MAPK11 (11762145_a_at) / Fold change /veh MAPK11 (11762145_a_at) / RFU FIZ1 (11724087_x_at) / Fold change /veh FIZ1 (11724087_x_at) / RFU OASL (11726364_x_at) / Fold change /veh OASL (11726364_x_at) / RFU SOX15 (11748057_x_at) / Fold change /veh SOX15 (11748057_x_at) / RFU CD79A (11719716_a_at) / Fold change /veh CD79A (11719716_a_at) / RFU HIST1H1D (11736915_at) / Fold change /veh HIST1H1D (11736915_at) / RFU CASKIN2 (11723855_a_at) / Fold change /veh CASKIN2 (11723855_a_at) / RFU LOC730098 (11760151_x_at) / Fold change /veh LOC730098 (11760151_x_at) / RFU OR4N2 (11742367_at) / Fold change /veh OR4N2 (11742367_at) / RFU PRRT2 (11749266_a_at) / Fold change /veh PRRT2 (11749266_a_at) / RFU SNX32 (11753110_a_at) / Fold change /veh SNX32 (11753110_a_at) / RFU CDHR5 (11726645_a_at) / Fold change /veh CDHR5 (11726645_a_at) / RFU RCAN1 (11760418_a_at) / Fold change /veh RCAN1 (11760418_a_at) / RFU FAM167A (11723789_a_at) / Fold change /veh FAM167A (11723789_a_at) / RFU FAM26E (11764081_at) / Fold change /veh FAM26E (11764081_at) / RFU ISYNA1 (11749810_s_at) / Fold change /veh ISYNA1 (11749810_s_at) / RFU ACY1 (11761880_at) / Fold change /veh ACY1 (11761880_at) / RFU 11764098_at / Fold change /veh 11764098_at / RFU SAMD14 (11745864_x_at) / Fold change /veh SAMD14 (11745864_x_at) / RFU NPB (11741838_a_at) / Fold change /veh NPB (11741838_a_at) / RFU TMPRSS6 (11731388_a_at) / Fold change /veh TMPRSS6 (11731388_a_at) / RFU KRTAP10-2 (11738614_at) / Fold change /veh KRTAP10-2 (11738614_at) / RFU ARHGAP8 /// PRR5-ARHGAP8 (11727945_x_at) / Fold change /veh ARHGAP8 /// PRR5-ARHGAP8 (11727945_x_at) / RFU KRTAP5-7 /// NADSYN1 (11734609_at) / Fold change /veh KRTAP5-7 /// NADSYN1 (11734609_at) / RFU RASL12 (11751679_a_at) / Fold change /veh RASL12 (11751679_a_at) / RFU CDKN2B (11736163_a_at) / Fold change /veh CDKN2B (11736163_a_at) / RFU PRF1 (11729649_at) / Fold change /veh PRF1 (11729649_at) / RFU, ZNF638 /// ZNF638-IT1 / Fold change vs veh, ZNF638 /// ZNF638-IT1 / RFU, PANK3 / Fold change vs veh, PANK3 / RFU, SH3YL1 / Fold change vs veh, SH3YL1 / RFU, ZEB2 / Fold change vs veh, ZEB2 / RFU, NRIP1 / Fold change vs veh, NRIP1 / RFU, PTTG1IP / Fold change vs veh, PTTG1IP / RFU, CAPN2 / Fold change vs veh, CAPN2 / RFU, MED14 / Fold change vs veh, MED14 / RFU, SNORA58 / Fold change vs veh, SNORA58 / RFU, C1orf63 / Fold change vs veh, C1orf63 / RFU, LRRFIP1 / Fold change vs veh, LRRFIP1 / RFU, NDUFAF7 / Fold change vs veh, NDUFAF7 / RFU, SLC12A2 / Fold change vs veh, SLC12A2 / RFU, IBTK / Fold change vs veh, IBTK / RFU, ESF1 / Fold change vs veh, ESF1 / Fold change vs veh, TMEM50B / RFU, TAOK1 / Fold change vs veh, TAOK1 / RFU, ACBD3 / Fold change vs veh, ACBD3 / RFU, TMA16 / Fold change vs veh, TMA16 / RFU, RWDD3 / Fold change vs veh, RWDD3 / RFU, BCAT1 / Fold change vs veh, BCAT1 / RFU, EDEM3 / Fold change vs veh, EDEM3 / RFU, TMEM33 / Fold change vs veh, TMEM33 / RFU, WDR75 / Fold change vs veh, WDR75 / RFU, AHCTF1 / Fold change vs veh, AHCTF1 / RFU, TFRC / Fold change vs veh, TFRC / RFU, ZDHHC17 / Fold change vs veh, ZDHHC17 / RFU, NOM1 / Fold change vs veh, NOM1 / RFU, ARL8B / Fold change vs veh, ARL8B / RFU, ZBTB11 / Fold change vs veh, ZBTB11 / RFU, TAMM41 / Fold change vs veh, TAMM41 / RFU, KIAA1704 /// LOC100996395 / Fold change vs veh, KIAA1704 /// LOC100996395 / RFU, ING1 / Fold change vs veh, ING1 / RFU, TRMT61B / Fold change vs veh, TRMT61B / RFU, FUBP3 / Fold change vs veh, FUBP3 / RFU, TP53 / Fold change vs veh, TP53 / RFU, TNKS2 / Fold change vs veh, TNKS2 / RFU, ZFP14 / Fold change vs veh, ZFP14 / RFU, ACTR2 / Fold change vs veh, ACTR2 / RFU, PPP3R1 / Fold change vs veh, PPP3R1 / RFU, PIK3R1 / Fold change vs veh, PIK3R1 / RFU, HNRNPA1 / Fold change vs veh, HNRNPA1 / RFU, RNF170 / Fold change vs veh, RNF170 / RFU, ZNF28 / Fold change vs veh, ZNF28 / RFU, RNGTT / Fold change vs veh, RNGTT / RFU, OGT / Fold change vs veh, OGT / RFU, BRD1 / Fold change vs veh, BRD1 / RFU, MARS / Fold change vs veh, MARS / RFU, ZNF655 / Fold change vs veh, ZNF655 / RFU, FAHD1 / Fold change vs veh, FAHD1 / RFU, BDP1 / Fold change vs veh, BDP1 / RFU, LRRCC1 / Fold change vs veh, LRRCC1 / RFU, ARID1A / Fold change vs veh, ARID1A / RFU, ZNF146 / Fold change vs veh, ZNF146 / RFU, ZNF330 / Fold change vs veh, ZNF330 / RFU, GPN3 / Fold change vs veh, GPN3 / RFU, C9orf123 / Fold change vs veh, C9orf123 / RFU, N4BP2L2 / Fold change vs veh, N4BP2L2 / RFU, ARFIP1 / Fold change vs veh, ARFIP1 / RFU, FAM179B / Fold change vs veh, FAM179B / RFU, BCL10 / Fold change vs veh, BCL10 / RFU, UHRF1BP1L / Fold change vs veh, UHRF1BP1L / RFU, BET1 / Fold change vs veh, BET1 / RFU, CNOT2 / Fold change vs veh, CNOT2 / RFU, ZNF268 / Fold change vs veh, ZNF268 / Fold change vs veh, ZNF507 / RFU, DGCR2 / Fold change vs veh, DGCR2 / RFU, WDSUB1 / Fold change vs veh, WDSUB1 / Fold change vs veh, HSP90B1 /// MIR3652 / RFU, ADSS / Fold change vs veh, ADSS / RFU, GK / Fold change vs veh, GK / RFU, ZNF148 / Fold change vs veh, ZNF148 / RFU, TAF9 / Fold change vs veh, TAF9 / RFU, SLC1A5 / Fold change vs veh, SLC1A5 / RFU, SLMO2 / Fold change vs veh, SLMO2 / RFU, ABCC4 / Fold change vs veh, ABCC4 / RFU, LOC101060439 /// RAP1B / Fold change vs veh, LOC101060439 /// RAP1B / RFU, RFX7 / Fold change vs veh, RFX7 / RFU, GTPBP10 / Fold change vs veh, GTPBP10 / RFU, CNEP1R1 / Fold change vs veh, CNEP1R1 / RFU, BIVM-ERCC5 /// ERCC5 / Fold change vs veh, BIVM-ERCC5 /// ERCC5 / RFU, ILF3 / Fold change vs veh, ILF3 / RFU 11762660_at / Fold change /veh 11762660_at / RFU VCAN (11757783_s_at) / Fold change /veh VCAN (11757783_s_at) / RFU DDX43 (11728927_at) / Fold change /veh DDX43 (11728927_at) / RFU KRT8 (11758188_x_at) / Fold change /veh KRT8 (11758188_x_at) / RFU NKD1 (11759106_at) / Fold change /veh NKD1 (11759106_at) / RFU SRD5A1 (11742802_a_at) / Fold change /veh SRD5A1 (11742802_a_at) / RFU TPSAB1 /// TPSB2 (11721975_s_at) / Fold change /veh TPSAB1 /// TPSB2 (11721975_s_at) / RFU GSTM3 (11746129_a_at) / Fold change /veh GSTM3 (11746129_a_at) / RFU IL23R (11737362_x_at) / Fold change /veh IL23R (11737362_x_at) / RFU TMEM51 (11727254_a_at) / Fold change /veh TMEM51 (11727254_a_at) / RFU PIWIL2 (11732686_x_at) / Fold change /veh PIWIL2 (11732686_x_at) / RFU ORM1 (11744905_x_at) / Fold change /veh ORM1 (11744905_x_at) / RFU CCDC152 (11743942_at) / Fold change /veh CCDC152 (11743942_at) / RFU ECM1 (11717891_a_at) / Fold change /veh ECM1 (11717891_a_at) / RFU IL23R (11748794_a_at) / Fold change /veh IL23R (11748794_a_at) / RFU TNFAIP8L3 (11732012_x_at) / Fold change /veh TNFAIP8L3 (11732012_x_at) / RFU MBOAT4 (11741988_at) / Fold change /veh MBOAT4 (11741988_at) / RFU 11764193_at / Fold change /veh 11764193_at / RFU TMEM53 (11763286_at) / Fold change /veh TMEM53 (11763286_at) / RFU MAGEB2 (11727129_at) / Fold change /veh MAGEB2 (11727129_at) / RFU TMEM200A (11744735_a_at) / Fold change /veh TMEM200A (11744735_a_at) / RFU CCDC152 (11751479_a_at) / Fold change /veh CCDC152 (11751479_a_at) / RFU FAM211A (11726209_a_at) / Fold change /veh FAM211A (11726209_a_at) / RFU RGS16 (11746705_a_at) / Fold change /veh RGS16 (11746705_a_at) / RFU VCAN (11755009_s_at) / Fold change /veh VCAN (11755009_s_at) / RFU RHOB (11743442_s_at) / Fold change /veh RHOB (11743442_s_at) / RFU RGS16 (11720943_a_at) / Fold change /veh RGS16 (11720943_a_at) / RFU RGS16 (11720944_at) / Fold change /veh RGS16 (11720944_at) / RFU, VPS4B / Fold change vs veh, VPS4B / RFU, CREB1 / Fold change vs veh, CREB1 / RFU, DNAJC13 / Fold change vs veh, DNAJC13 / RFU, GNAQ / Fold change vs veh, GNAQ / RFU, CDK5R1 / Fold change vs veh, CDK5R1 / RFU, ZRANB3 / Fold change vs veh, ZRANB3 / RFU, CUL4A / Fold change vs veh, CUL4A / RFU, CCNY / Fold change vs veh, CCNY / RFU, UFL1 / Fold change vs veh, UFL1 / RFU, COG3 / Fold change vs veh, COG3 / RFU, DIAPH2 / Fold change vs veh, DIAPH2 / RFU, SKA2 / Fold change vs veh, SKA2 / RFU, AFF3 / Fold change vs veh, AFF3 / RFU, LMF1 / Fold change vs veh, LMF1 / RFU, IPO11 / Fold change vs veh, IPO11 / RFU, DFFB / Fold change vs veh, DFFB / RFU, FOXP1 / Fold change vs veh, FOXP1 / RFU, CARD8 / Fold change vs veh, CARD8 / RFU, STRN3 / Fold change vs veh, STRN3 / RFU, ADK / Fold change vs veh, ADK / RFU, RASSF2 / Fold change vs veh, RASSF2 / RFU, WIPF1 / Fold change vs veh, WIPF1 / RFU, LARP1B / Fold change vs veh, LARP1B / RFU, RASA1 / Fold change vs veh, RASA1 / RFU, RB1 / Fold change vs veh, RB1 / RFU, PPFIA1 / Fold change vs veh, PPFIA1 / RFU, MAT2A / Fold change vs veh, MAT2A / RFU, CCT5 / Fold change vs veh, CCT5 / RFU, WDR92 / Fold change vs veh, WDR92 / RFU, CUX1 / Fold change vs veh, CUX1 / RFU, TTC7A / Fold change vs veh, TTC7A / RFU, TMEM135 / Fold change vs veh, TMEM135 / RFU, DEPTOR / Fold change vs veh, DEPTOR / RFU, CPM / Fold change vs veh, CPM / RFU, DNAJB6 / Fold change vs veh, DNAJB6 / RFU, CACNA2D3 / Fold change vs veh, CACNA2D3 / RFU, DTX4 / Fold change vs veh, DTX4 / RFU, TFCP2 / Fold change vs veh, TFCP2 / RFU, GMCL1 /// GMCL1P1 / Fold change vs veh, GMCL1 /// GMCL1P1 / RFU, AEBP2 / Fold change vs veh, AEBP2 / RFU, SNHG1 /// SNORD22 /// SNORD25 /// SNORD26 /// SNORD27 /// SNORD28 /// SNORD29 /// SNORD31 / Fold change vs veh, SNHG1 /// SNORD22 /// SNORD25 /// SNORD26 /// SNORD27 /// SNORD28 /// SNORD29 /// SNORD31 / Fold change (Aza/veh), C12orf56 (ProbeSet 11735607_a_at) / Fold change (ACY-1035/veh), C12orf56 (ProbeSet 11735607_a_at) / Fold change (Aza/veh), FGFR1OP (ProbeSet 11751329_s_at) / Fold change (ACY-1035/veh), FGFR1OP (ProbeSet 11751329_s_at) / Fold change (Aza/veh), VPS36 (ProbeSet 11739960_a_at) / Fold change (ACY-1035/veh), VPS36 (ProbeSet 11739960_a_at) / RFU SYPL1 (11715823_x_at) / Fold change /veh SYPL1 (11715823_x_at) / RFU IGFBP7 (11715501_s_at) / Fold change /veh IGFBP7 (11715501_s_at) / RFU REEP3 (11722064_at) / Fold change /veh REEP3 (11722064_at) / RFU IGLL1 (11728026_x_at) / Fold change /veh IGLL1 (11728026_x_at): dose or concentration left out as unconfirmed
# Settings: MV-4-11 cells, 48 hours
compound,measurement,value
Nc1ccc(-c2cccs2)cc1NC(=O)c1ccc2c(c1)cc(C1CC1)n2CCN1CCOCC1 [ACY-1035],Fold change /veh PLEKHG5 (11737974_s_at),1.09
